The values below come from paper PMC2119788 (The Journal of Cell Biology, 1993).

One test concerns A-1 fibroblasts. The settings on record: previous report; ref Roch et al., 1992; cited from earlier work.
In another test the test system is A-1 cells. The class given is cell-based. The settings on record: included in the assay media at 100 ug/ml; data not shown.

“TPDAVDKYLETPGDENEHAHFQKAKERLEAKHRERMSQVM [40-mer]”: the “Activity on the A-1 cell growth assay” value in the test on A-1 fibroblasts is “active”.
As for heparan sulfate, the “Inhibition of the growth-promoting effect of 17-mer or KB75” value with A-1 cells was “failed to inhibit”.
On to heparin, for which the “Inhibition of the growth-promoting effect of 17-mer or KB75” value in the test on A-1 cells is “failed to inhibit”.
